Columns and labels:
Assay type in all cases: physicochemical
Hygroscopicity = assay: Hygroscopicity
pH-Solubility = settings: free base
[1] = Solution Stability in aqueous solutions; settings: room temperature, all aqueous solutions (pH 1.6-10.5)
[2] = Octanol/Water Partitioning Coefficient; settings: @ pH 6

SMILES | Hygroscopicity (Hygroscopicity) | pH-Solubility (pH-Solubility; Final pH 1.60) | pH-Solubility (pH-Solubility; Final pH 7.62) | pH-Solubility (pH-Solubility; Final pH 8.21) | pH-Solubility (pH-Solubility; Final pH 9.00) | pH-Solubility (pH-Solubility; Final pH 10.5) | Hygroscopicity, weight gain (Hygroscopicity; @ 60% RH) [%] | Hygroscopicity, weight gain (Hygroscopicity; @ 90% RH, weight gain was lost when returned to 10% RH or 0% RH) | Solution Stability, time stable [1] | Octanol/Water Partitioning Coefficient Coct/Caq [2]
CN(C)CC(c1ccc(O)cc1)[C@]1(O)CC[C@@H](O)CC1.O=C(O)CCC(=O)O (stereo partly drawn) [Succinate salt, 1-[2-dimethylamino-1-(4-phenol)ethyl]-cis-1,4-cyclohexandiol succinate] | hygroscopic | – | – | – | – | – | – | – | – | –
COC1CCC(O)(C(CN(C)C)c2ccc(O)cc2)CC1 (stereo not drawn) [4-[2-dimethylamino-1-(cis-1-hydroxy-4-methoxy-cyclohexyl)-ethyl]-phenol] | Non-hygroscopic | Final pH 1.60 >10.71 mg/ml | Final pH 7.62 >10.00 mg/ml | Final pH 8.21 >10.00 mg/ml | Final pH 9.00 7.65 mg/ml | Final pH 10.5 7.65 mg/ml | 0.44 | 60% RH, 1.2% weight gain @ 90% RH, | The compound was stable for at least 72 hours | Coct/Caq @ pH 6 = 6.857
